In patent US8436036B2, “Diaryl ethers” (Janssen R&D Ireland, priority 2009, dated 2013):

Key:
HCV replicon = HCV replicon assay (Huh-Luc cells, luciferase read-out); format: cell-based, HCV type Ib; conditions: Hepatitis C virus, 72 h, three days incubation, luciferase activity
Excerpt: The compounds of formula (I) were examined for inhibitory activity in the HCV replicon. This cellular assay is based on a bicistronic expression construct, as described by Lohmann et al. (1999) Science vol. 285 pp. 110-113 with modifications described by Krieger et al. (2001) Journal of Virology 75: 4614-4624, in a multi-target screening strategy.
In essence, the method was as follows:
The assay utilized the stably transfected cell line Huh-7 luc/neo (hereafter referred to as Huh-Luc). This cell line harbors an RNA encoding a bicistronic expression construct comprising the wild type NS3-NS5B regions of HCV type Ib translated from an Internal Ribosome Entry Site (IRES) from encephalomyocarditis virus (EMCV), preceded by a reporter portion (FfL-luciferase), and a selectable marker portion (neo^R, neomycine phosphotransferase). The construct is flanked by 5′ and 3′ NTRs (non-translated regions) from HCV type Ib. Continued culture of the replicon cells in the presence of G418 (neo^R) is dependent on the replication of the HCV RNA. The stably transfected replicon cells that express HCV RNA, which replicates autonomously and to high levels, encoding inter alia luciferase, were used for screening the antiviral compounds.
The replicon cells were plated in 384 well plates in the presence of the test and control compounds which were added in various concentrations. Following an incubation of three days, HCV replication was measured by assaying luciferase activity (using standard luciferase assay substrates and reagents and a Perkin Elmer ViewLux™ ultraHTS microplate imager). Replicon cells in the control cultures have high luciferase expression in the absence of any inhibitor. The inhibitory activity of the compound on luciferase activity was monitored on the Huh-Luc cells, enabling a dose-response curve for each test compound. EC50 values were then calculated, which represent the amount of compound required to decrease the level of detected luciferase activity by 50%, or more specifically, to reduce the ability of the genetically linked HCV replicon RNA to replicate.

Cytotoxicity (Huh-7) = format: cell-based; conditions: human, Huh-7 cells
Excerpt: The in vitro antiviral activity against HCV of the compounds of formula I can be tested in a cellular HCV replicon system based on Lohmann et al. (1999) Science 285:110-113, with the further modifications described by Krieger et al. (2001) Journal of Virology 75: 4614-4624 (incorporated herein by reference), which is further exemplified in the examples section. This model, while not a complete infection model for HCV, is widely accepted as the most robust and efficient model of autonomous HCV RNA replication currently available. It will be appreciated that it is important to distinguish between compounds that specifically interfere with HCV functions from those that exert cytotoxic or cytostatic effects in the HCV replicon model, and as a consequence cause a decrease in HCV RNA or linked reporter enzyme concentration. Assays are known in the field for the evaluation of cellular cytotoxicity based for example on the activity of mitochondrial enzymes using fluorogenic redox dyes such as resazurin. Furthermore, cellular counter screens exist for the evaluation of non-selective inhibition of linked reporter gene activity, such as firefly luciferase. Appropriate cell types can be equipped by stable transfection with a luciferase reporter gene whose expression is dependent on a constitutively active gene promoter, and such cells can be used as a counter-screen to eliminate non-selective inhibitors.

Structure (SMILES) | EC50 (HCV replicon) | CC50 (Cytotoxicity (Huh-7))
O=C(Cc1ccc2c(c1)OCO2)N1CCC[C@H]1c1nc(-c2cccc(Oc3ccc(-c4cnc([C@@H]5CCCN5C(=O)Cc5ccc6c(c5)OCO6)[nH]4)cc3)c2)c[nH]1 [Example 19] | 1070 nM | > 31.5 µM
O=C(c1ccc(F)cc1)N1CCC[C@H]1c1nc(-c2cccc(Oc3ccc(-c4cnc([C@@H]5CCCN5C(=O)c5ccc(F)cc5)[nH]4)cc3)c2)c[nH]1 [Example 34] | 4340 nM | > 31.5 µM
O=C(c1ccccn1)N1CCC[C@H]1c1nc(-c2cccc(Oc3ccc(-c4cnc([C@@H]5CCCN5C(=O)c5ccccn5)[nH]4)cc3)c2)c[nH]1 [Example 37] | 15400 nM | > 31.5 µM
Cc1nc(C(=O)N2CCC[C@H]2c2nc(-c3cccc(Oc4ccc(-c5cnc([C@@H]6CCCN6C(=O)c6nc(C)oc6C)[nH]5)cc4)c3)c[nH]2)c(C)o1 [Example 33] | 864 nM | > 31.5 µM
O=C(C(O)c1ccccc1)N1CCC[C@H]1c1nc(-c2cccc(Oc3ccc(-c4cnc([C@@H]5CCCN5C(=O)C(O)c5ccccc5)[nH]4)cc3)c2)c[nH]1 (stereo partly drawn) [Example 10, 2-hydroxy-1-((2S)-2-(5-(4-(3-(2-((2S)-1-(2-hydroxy-2-phenylacetyl)-pyrrolidin-2-yl)-1H-imidazol-4-yl)phenoxy)phenyl)-1H-imidazol-2-yl)pyrrolidin-1-yl)-2-phenylethanone] | < 0.5 nM | 4.86 µM
O=C(CCc1ccccc1F)N1CCC[C@H]1c1nc(-c2cccc(Oc3ccc(-c4cnc([C@@H]5CCCN5C(=O)CCc5ccccc5F)[nH]4)cc3)c2)c[nH]1 [Example 26] | 2310 nM | > 31.5 µM
CN(C)C(C(=O)N1CCC[C@H]1c1nc(-c2cccc(Oc3ccc(-c4cnc([C@@H]5CCCN5C(=O)C(c5ccc(Cl)cc5)N(C)C)[nH]4)cc3)c2)c[nH]1)c1ccc(Cl)cc1 (stereo partly shown) [Example 30] | 3.62 nM | 4.6 µM
O=C(CCc1cccnc1)N1CCC[C@H]1c1nc(-c2cccc(Oc3ccc(-c4cnc([C@@H]5CCCN5C(=O)CCc5cccnc5)[nH]4)cc3)c2)c[nH]1 [Example 29] | 3.98 nM | > 31.5 µM
COC(=O)N[C@H](C(=O)N1CCC[C@H]1c1nc(-c2cccc(Oc3ccc(-c4cnc([C@@H]5CCCN5C(=O)[C@@H](NC(=O)OC)C(C)C)[nH]4)cc3)c2)c[nH]1)C(C)C [Example 42] | 0.0433 nM | 18.6 µM
O=C(c1cccnc1)N1CCC[C@H]1c1nc(-c2cccc(Oc3ccc(-c4cnc([C@@H]5CCCN5C(=O)c5cccnc5)[nH]4)cc3)c2)c[nH]1 [Example 38] | 1270 nM | > 31.5 µM
O=C(CCS(=O)(=O)c1ccccc1)N1CCC[C@H]1c1nc(-c2cccc(Oc3ccc(-c4cnc([C@@H]5CCCN5C(=O)CCS(=O)(=O)c5ccccc5)[nH]4)cc3)c2)c[nH]1 [Example 21] | 3700 nM | > 31.5 µM
COC(=O)NC(C(=O)N1CCC[C@H]1c1nc(-c2ccc(Oc3ccc(OC)c(-c4cnc([C@@H]5CCCN5C(=O)C(NC(=O)OC)c5ccccc5)[nH]4)c3)cc2)c[nH]1)c1ccccc1 (stereo partly shown) [Example 46] | > 980 nM | > 98.4 µM
COc1c(F)cc(CC(=O)N2CCC[C@H]2c2nc(-c3cccc(Oc4ccc(-c5cnc([C@@H]6CCCN6C(=O)Cc6cc(F)c(OC)c(F)c6)[nH]5)cc4)c3)c[nH]2)cc1F [Example 25] | 3390 nM | > 31.5 µM
COC(=O)N[C@H](C(=O)N1CCC[C@H]1c1ncc(-c2ccc(Oc3cccc(-c4cnc([C@@H]5CCCN5C(=O)[C@@H](NC(=O)OC)[C@@H](C)OC)[nH]4)c3)cc2)[nH]1)[C@@H](C)OC [Example 39] | 0.0794 nM | > 31.5 µM
CN(C)[C@@H](C(=O)N1CCC[C@H]1c1ncc(-c2ccc(Oc3cccc(-c4cnc([C@@H]5CCCN5C(=O)[C@@H](c5ccccc5)N(C)C)[nH]4)c3)cc2)[nH]1)c1ccccc1 [Example 43] | 0.114 nM | 0.7 µM
O=C([C@@H](O)c1ccccc1)N1CCC[C@H]1c1nc(-c2cccc(Oc3ccc(-c4cnc([C@@H]5CCCN5C(=O)[C@@H](O)c5ccccc5)[nH]4)cc3)c2)c[nH]1 [Example 23] | 60.8 nM | 3.66 µM

Structure (SMILES) | EC50 (HCV replicon) | CC50 (Cytotoxicity (Huh-7))
O=C([C@H]1CCCO1)N1CCC[C@H]1c1nc(-c2cccc(Oc3ccc(-c4cnc([C@@H]5CCCN5C(=O)[C@H]5CCCO5)[nH]4)cc3)c2)c[nH]1 [Example 22] | 1090 nM | > 31.5 µM
Cc1cccc(CC(=O)N2CCC[C@H]2c2nc(-c3cccc(Oc4ccc(-c5cnc([C@@H]6CCCN6C(=O)Cc6cccc(C)c6)[nH]5)cc4)c3)c[nH]2)c1 [Example 11, 2-m-tolyl-1-((2S)-2-(5-(4-(3-(2-((S)-1-(2-m-tolylacetyl)pyrrolidin-2-yl)-1H-imidazol-4-yl)phenoxy)phenyl)-1H-imidazol-2-yl)pyrrolidin-1-yl)ethanone] | 6180 nM | > 31.5 µM
COc1ccc(Oc2ccc(-c3c[nH]c([C@@H]4CCCN4C(=O)[C@@H](c4ccccc4)N(C)C)n3)cc2)cc1-c1c[nH]c([C@@H]2CCCN2C(=O)[C@@H](c2ccccc2)N(C)C)n1 [Example 47] | 0.705 nM | –
O=C(C(=O)N1CCC[C@H]1c1nc(-c2cccc(Oc3ccc(-c4cnc([C@@H]5CCCN5C(=O)C(=O)c5ccccc5)[nH]4)cc3)c2)c[nH]1)c1ccccc1 [Example 20] | 58.2 nM | > 31.5 µM
O=C(Cc1ccccc1OC(F)(F)F)N1CCC[C@H]1c1nc(-c2cccc(Oc3ccc(-c4cnc([C@@H]5CCCN5C(=O)Cc5ccccc5OC(F)(F)F)[nH]4)cc3)c2)c[nH]1 [Example 24] | 14.4 nM | > 31.5 µM
O=C(Cc1ccccc1)N1CCC[C@H]1c1ncc(-c2ccc(Oc3ccc(-c4cnc([C@@H]5CCCN5C(=O)Cc5ccccc5)[nH]4)cc3)cc2)[nH]1 [Example 49] | 1120 nM | > 31.5 µM
CN(C)CCC(=O)N1CCC[C@H]1c1nc(-c2cccc(Oc3ccc(-c4cnc([C@@H]5CCCN5C(=O)CCN(C)C)[nH]4)cc3)c2)c[nH]1 [Example 41] | 1240 nM | > 31.5 µM
CC(C)[C@@H](C(=O)N1CCC[C@H]1c1nc(-c2cccc(Oc3ccc(-c4cnc([C@@H]5CCCN5C(=O)[C@H](C(C)C)N(C)C)[nH]4)cc3)c2)c[nH]1)N(C)C [Example 31] | 1160 nM | 2.87 µM
COc1cccc(CCC(=O)N2CCC[C@H]2c2nc(-c3cccc(Oc4ccc(-c5cnc([C@@H]6CCCN6C(=O)CCc6cccc(OC)c6)[nH]5)cc4)c3)c[nH]2)c1 [Example 27] | 3530 nM | > 31.5 µM
CCN(CC)[C@@H](C(=O)N1CCC[C@H]1c1nc(-c2cccc(Oc3ccc(-c4cnc([C@@H]5CCCN5C(=O)[C@@H](c5ccccc5)N(CC)CC)[nH]4)cc3)c2)c[nH]1)c1ccccc1 [Example 44] | 0.12 nM | 0.78 µM
COC(=O)N[C@H](C(=O)N1CCC[C@H]1c1ncc(-c2ccc(Oc3cccc(-c4cnc([C@@H]5CCCN5C(=O)[C@@H](NC(=O)OC)C(C)(C)C)[nH]4)c3)cc2)[nH]1)C(C)(C)C [Example 40] | 0.165 nM | 12.6 µM
O=C(Cc1cccnc1)N1CCC[C@H]1c1nc(-c2cccc(Oc3ccc(-c4cnc([C@@H]5CCCN5C(=O)Cc5cccnc5)[nH]4)cc3)c2)c[nH]1 [Example 18] | 54.3 nM | > 31.5 µM
O=C(CC1CCCCC1)N1CCC[C@H]1c1nc(-c2cccc(Oc3ccc(-c4cnc([C@@H]5CCCN5C(=O)CC5CCCCC5)[nH]4)cc3)c2)c[nH]1 [Example 28] | 5470 nM | > 31.5 µM
O=C(Cc1ccccc1)N1CCC[C@H]1c1nc(-c2cccc(Oc3ccc(-c4cnc([C@@H]5CCCN5C(=O)Cc5ccccc5)[nH]4)cc3)c2)c[nH]1 [Example 9, 2-phenyl-1-((S)-2-(5-(4-(3-(2-((S)-1-(2-phenylacetyl)pyrrolidin-2-yl)-1H-imidazol-4-yl)phenoxy)phenyl)-1H-imidazol-2-yl)pyrrolidin-1-yl)ethanone] | 77 nM | > 31.5 µM
CC(C)C[C@@H](C(=O)N1CCC[C@H]1c1nc(-c2cccc(Oc3ccc(-c4cnc([C@@H]5CCCN5C(=O)[C@H](CC(C)C)N(C)C)[nH]4)cc3)c2)c[nH]1)N(C)C [Example 36] | 3030 nM | 7.76 µM
